The results in this text go back to patent US20230212549A1, “COMPOUNDS COMPRISING A […] LIGAND AND USE THEREOF” (priority 2021, published 2023).

Data set [1] addresses T1, FAP-expressing human WI-38 fibroblasts (Homo sapiens, UniProt Q12884).
T1 construct: FAP-expressing human WI-38 fibroblasts (ECACC) were cultured in EMEM; host or cells: WI-38 human fibroblasts
The data set can be described thus: Competitive FACS binding assay. The protocol:
Cells were analyzed in an Attune NxT flow cytometer. […] […].
Cells were analyzed in an Attune NxT flow cytometer. […]

The nature of data set [2]: Radiochemical purity by HPLC of ^99mTc-labeled compounds. The format is physicochemical. The following applies: 99Tc-labeled compounds. The protocol:
100-500 MBq of ^99mTcO4 (in saline) were mixed with 11 μl of 0.5 M phosphate buffer pH 11.5-12.0 and 1.1 μl of 0.1 M trisodium citrate per 100 μl radionuclide solution. […] The mixture was incubated for 30 min at 25-50′° C. At the end of the incubation time, the mixture was neutralized with 3.0 μl 1 M HCl per 10 μl phosphate buffer and TWEEN-20 was added at a final concentration of 0.100.

Data set [3] concerns the target T2, Human recombinant FAP (Homo sapiens, UniProt Q12884). The data set can be described thus: FRET-based FAP protease activity assay. The format is biochemical. Details: purchased R&D systems 3715-SE.
Data set [4] addresses T2, Human recombinant FAP. Put plainly: Surface plasmon resonance (Biacore) assay. The format is binding.
Another data set is described as follows: in vivo. As to conditions: swiss nude, mouse, iv.
The mark [5] stands for this setting: pIC50 Category (activity), Recombinant human FAP.

SMILES strings stand for the structures. Numbered stars: 1 amine (or outer) side, 2 acyl side, 3 side chain; on linkers, the order of the positions; unused ones are H or OH. Bridge positions count the residues as written; N and C are the ends. Square brackets hold non-standard residues; d marks the D form. Peptide text beside a SMILES is read from it. * marks the point of attachment. X6 = NCCNCC(CNCCN)C(=O)NCCOCCOCCOCCOCCOCCOCCC(=O)NCCCOCCOCCOCCCN*; X1 = NCCNCC(CNCCN)C(=O)N1CCN(CC(=O)NCCCOCCOCCOCCCN*)CC1; mXylylene = c1cc(C[*:1])cc(C[*:2])c1; Suc = O=C(CCC(=O)[*:2])[*:1]; Nle = CCCC[C@H](N)C(=O)O A value given as a limit tells only on which side of the number the result lay.

T1 sequence (Q12884 whole entry): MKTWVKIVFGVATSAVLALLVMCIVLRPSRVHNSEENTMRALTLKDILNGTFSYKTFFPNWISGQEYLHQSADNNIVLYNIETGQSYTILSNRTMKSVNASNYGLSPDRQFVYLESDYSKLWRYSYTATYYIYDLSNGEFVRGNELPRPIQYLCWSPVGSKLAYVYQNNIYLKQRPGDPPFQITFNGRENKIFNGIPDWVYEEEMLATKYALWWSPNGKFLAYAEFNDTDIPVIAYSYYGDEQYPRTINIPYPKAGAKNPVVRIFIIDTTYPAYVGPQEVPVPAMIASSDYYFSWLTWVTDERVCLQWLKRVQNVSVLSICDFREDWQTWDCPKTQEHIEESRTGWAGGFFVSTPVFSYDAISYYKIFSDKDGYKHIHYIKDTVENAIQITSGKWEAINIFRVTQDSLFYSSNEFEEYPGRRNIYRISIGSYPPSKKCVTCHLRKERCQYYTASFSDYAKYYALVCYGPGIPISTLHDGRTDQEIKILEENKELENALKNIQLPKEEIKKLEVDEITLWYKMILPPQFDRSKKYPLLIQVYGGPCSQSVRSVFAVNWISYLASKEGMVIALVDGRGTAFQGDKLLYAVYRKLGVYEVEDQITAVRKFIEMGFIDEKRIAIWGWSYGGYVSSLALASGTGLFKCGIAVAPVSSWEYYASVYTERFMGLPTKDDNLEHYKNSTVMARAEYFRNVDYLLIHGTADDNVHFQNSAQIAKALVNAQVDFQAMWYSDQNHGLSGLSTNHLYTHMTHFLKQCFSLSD
T2 sequence (Q12884 whole entry): as above

For `CCCC[C@H](NC(=O)CCOCCOCCOCCOCCOCCOCCNC(=O)C(CNCCN)CNCCN)C(=O)N[C@H]1CSCc2cccc(c2)CSCC(C(=O)O)NC(=O)[C@H](Cc2ccccc2)NC(=O)[C@H](CCC(N)=O)NC(=O)[C@H]([C@@H](C)O)NC(=O)[C@@H]2CCCN2C(=O)[C@@H]2CCCN2C1=O` (stereo partly drawn) [3BP-4551, N4Ac-PEG6-Nle-[Cys(3MeBn)-Pro-Pro-Thr-Gln-Phe-Cys]-OH], the IC50 in data set [1] was in the range of 10 to 79.4 nM. For the same molecule, in data set [2], the “HPLC Area % appr. 4 h post end of synthesis” value (shortened to “HPLC Area % appr. 4 h post end”) is reported as 90.8% and the “HPLC Area % at end of synthesis” value was 94.1%. For the same molecule, the IC50 on Human recombinant FAP [3] (setting [5]) is 10 to 79.4 nM. The Kd at Human recombinant FAP [4] fell in the range of 10 to 79.4 nM. In the data set “in vivo” (blood pool surrogate (BPS)), this molecule showed a tissue uptake at 1 h of 0.18 %ID/g, a tissue uptake at 3 h of 0.07 %ID/g and a tissue uptake at 6 h of 0.04 %ID/g. In “in vivo” (kidneys), the tissue uptake at 1 h came out at 4.34 %ID/g, the tissue uptake at 3 h was 1.18 %ID/g and the tissue uptake at 6 h stood at 0.5 %ID/g. In “in vivo” (tumor), this molecule came in with a tissue uptake at 1 h of 10.6 %ID/g, a tissue uptake at 3 h of 7.31 %ID/g and a tissue uptake at 6 h of 4.59 %ID/g.

For the molecule `CCCCNC(=O)N[C@H]1CSCc2cc(CSCCNC(=O)C(CNCCN)CNCCN)cc(c2)CSC[C@@H](C(=O)O)NC(=O)[C@H](Cc2ccccc2)NC(=O)[C@H](CCC(N)=O)NC(=O)[C@H]([C@@H](C)O)NC(=O)[C@@H]2CCCN2C(=O)[C@@H]2CCCN2C1=O` [3BP-4534, nBu-CAyl-[Cys(tMeBn(N4Ac-AET))-Pro-Pro-Thr-Gln-Phe-Cys]-OH], the IC50 in data set [1] was less than 10 nM; at Human recombinant FAP [3] (pIC50 Category (Activity), FRET-peptide substrate, 37° C.), less than 10 nM. The “HPLC Area % at end of synthesis” value in data set [2] was determined as 98.6%. Moreover, the “HPLC Area % appr. 4 h post end” value in data set [2] ((3 h)) is reported as 97.5%. Moreover, the tissue uptake at 1 h turned out to be 1.7 %ID/g in the data set “in vivo” (blood pool surrogate (BPS)), 2.06 %ID/g in “in vivo” (kidneys) and 5.67 %ID/g in the data set “in vivo” (tumor). The values for the tissue uptake at 3 h in the data set “in vivo” (blood pool surrogate (BPS)), in “in vivo” (kidneys) and in “in vivo” (tumor) were 1.19 %ID/g, 1.4 %ID/g and 6.85 %ID/g, respectively. Moreover, the tissue uptake at 6 h turned out to be 0.78 %ID/g in the data set “in vivo” (blood pool surrogate (BPS)), 1.09 %ID/g in “in vivo” (kidneys) and 7.68 %ID/g in the data set “in vivo” (tumor).

`CCCC[C@H](NC(=O)CCC(=O)NCCCOCCOCCOCCCNC(=O)CN1CCN(C(=O)C(CNCCN)CNCCN)CC1)C(=O)N[C@H]1CSCc2cccc(c2)CSC[C@@H](C(=O)O)NC(=O)[C@H](Cc2ccccc2)NC(=O)[C@H](CCC(=O)O)NC(=O)[C@H]([C@@H](C)O)NC(=O)[C@@H]2CCCN2C(=O)[C@@H]2CCCN2C1=O` [3BP-4782, N4Ac-PPAc-Ttds-Nle-[Cys(3MeBn)-Pro-Pro-Thr-Glu-Phe-Cys]-OH] ({X1-Suc}-[Nle]CPPTEFC-OH; linker 2-8 via mXylylene): the IC50 in data set [1] lay within 10 to 79.4 nM. In data set [2], the “HPLC Area % appr. 4 h post end” value came out at 95.8% and the “HPLC Area % at end of synthesis” value is 97.1%. Also, on Human recombinant FAP [3] (setting [5]), the IC50 lay within 10 to 79.4 nM. For the same molecule, in the data set “in vivo” (blood pool surrogate (BPS)), the tissue uptake at 1 h worked out at 0.69 %ID/g, the tissue uptake at 3 h came to 0.47 %ID/g and the tissue uptake at 6 h was 0.36 %ID/g. In “in vivo” (kidneys), the tissue uptake at 1 h was 7.28 %ID/g, the tissue uptake at 3 h is 5.78 %ID/g and the tissue uptake at 6 h turned out to be 4.24 %ID/g. In the data set “in vivo” (tumor), the tissue uptake at 1 h worked out at 6.2 %ID/g, the tissue uptake at 3 h is 6.77 %ID/g and the tissue uptake at 6 h came to 7.17 %ID/g.

The molecule `CCCC[C@H](NC(=O)CCC(=O)NCCCOCCOCCOCCCNC(=O)CCOCCOCCOCCOCCOCCOCCNC(=O)C(CNCCN)CNCCN)C(=O)N[C@H]1CSCc2cccc(c2)CSC[C@@H](C(=O)O)NC(=O)[C@H](Cc2ccccc2)NC(=O)[C@H](CCC(=O)O)NC(=O)[C@H]([C@@H](C)O)NC(=O)[C@@H]2CCCN2C(=O)[C@@H]2CCCN2C1=O` [3BP-4780, N4Ac-PEG6-Ttds-Nle-[Cys(3MeBn)-Pro-Pro-Thr-Glu-Phe-Cys]-OH] ({X6-Suc}-[Nle]CPPTEFC-OH; linker 2-8 via mXylylene) showed an IC50 in data set [1] of 10 to 79.4 nM. In addition, in data set [2], the “HPLC Area % appr. 4 h post end” value was determined as 92.3% and the “HPLC Area % at end of synthesis” value is 95.0%. In addition, the IC50 at Human recombinant FAP [3] (setting [5]) was less than 10 nM. Besides, in the data set “in vivo” (blood pool surrogate (BPS)), the tissue uptake at 1 h stood at 0.81 %ID/g, the tissue uptake at 3 h was 0.61 %ID/g and the tissue uptake at 6 h was 0.43 %ID/g. In the data set “in vivo” (kidneys), this molecule registered a tissue uptake at 1 h of 8.11 %ID/g, a tissue uptake at 3 h of 6.14 %ID/g and a tissue uptake at 6 h of 4.36 %ID/g. Besides, in the data set “in vivo” (tumor), the tissue uptake at 1 h was 6.71 %ID/g, the tissue uptake at 3 h is 7.01 %ID/g and the tissue uptake at 6 h was 7.92 %ID/g.
